Reference: patent US20060142193A1, “Selective inhibition of rock1 in cardiac therapy” (BAYLOR COLLEGE OF MEDICINE, priority 2004, published 2006)
“Also recorded” adds a separate entry of the source.

Tests used:
[1] = system: conditional caspase 3 (iCasp3); experiment: ROCK1 cleavage in cardiomyocytes infected with Ad-G/iCasp3 (conditional caspase 3) and treated with CID; assay type: cell-based, rat; details: for 130 kDa cleavage fragment of ROCK1: cardiomyocytes infected with Ad-G/iCasp3 and treated with CID
Description: To analyze direct effect of caspase 3 activation on ROCK1 cleavage, the present inventors introduced a conditional caspase 3 via an adenoviral-mediated expression system in cultured rat neonatal cardiomyocytes. The adenoviral vector, Ad-G/iCasp3, has been described previously (Shariat et al., 2001; Mallet et al., 2002). This vector expresses a conditional caspase 3 (iCasp3), in which the human caspase 3 was fused to a modified FK506-binding domain, containing a binding site for a non-toxic chemical inducer of dimerization (CID), AP20187. Addition of CID leads to the aggregation and activation this caspase, and a rapid apoptosis in prostate cancer cells (Shariat et al., 2001; Mallet et al., 2002). This is depicted in FIG. 8C.
Cell culture, plasmid constructs, and recombinant adenoviruses. Neonatal rat cardiomyocytes were isolated and cultured in DMEM/F12 medium (1:1) with 10% horse serum (DF10); cells were ready for transfection or virus infection 40 hours after plating. For immunostaining, cells were cultured on pre-coated (with 0.2% gelatin) coverslips. Transfections were performed using LipofectAMINE 2000 (Invitrogen) with Opti-MEM I Reduced Serum Medium (Invitrogen). After 6 hr or O/N, cells were cultured in DF10. With human embryonic kidney (HEK) A293T cells, cells were cultured in DMEM with 10% fetal bovine serum. The cDNA for full length human ROCK-1 cloned into the pCAG-myc vector (pCAG-ROCK-1) was kindly provided by Dr. Narumiya. All ROCK-1 and mutant constructs were tagged with a Myc epitope at the amino-terminus. The Asp718-MscI cDNA fragment encoding ROCKΔ1 mutant (residues 1-1080) was also cloned into the pCAG-myc vector (pCAG-ROCKΔ1) (Ishizaki et al., 1997). A signal lysine at residue 105 was replaced by alanine to generate a kinase deficient mutant, pCAG-ROCK-1KD. The adenoviral vector, Ad-G/iCasp 3, expressing conditional caspase 3, was generously provided by Drs. David Spencer and Kevin Slawin at Baylor College of Medicine. […]

ROCK1 = ROCK1 cleavage in doxorubicin-treated cultured neonatal rat cardiomyocytes (Western blot); assay type: cell-based
Description: To determine if ROCK1 is cleaved by caspase 3 in apoptotic cardiomyocytes, the present inventors subjected cultured rat neonatal cardiomyocytes to doxorubicin treatment, which is a potent apoptotic inducer. The 130 kDa cleavage fragment of ROCK1 was detected in doxorubicin-treated myocytes as well as the cleaved PARP. In contrast, cleavage of ROCK2 was not observed. In addition, cleavage of ROCK1 is caspase 3-dependent, as the 130 kDa species was not detected in the presence of caspase 3 inhibitor, Z-VAD.
Cell culture, plasmid constructs, and recombinant adenoviruses. Neonatal rat cardiomyocytes were isolated and cultured in DMEM/F12 medium (1:1) with 10% horse serum (DF10); cells were ready for transfection or virus infection 40 hours after plating. For immunostaining, cells were cultured on pre-coated (with 0.2% gelatin) coverslips. Transfections were performed using LipofectAMINE 2000 (Invitrogen) with Opti-MEM I Reduced Serum Medium (Invitrogen). After 6 hr or O/N, cells were cultured in DF10. With human embryonic kidney (HEK) A293T cells, cells were cultured in DMEM with 10% fetal bovine serum. The cDNA for full length human ROCK-1 cloned into the pCAG-myc vector (pCAG-ROCK-1) was kindly provided by Dr. Narumiya. All ROCK-1 and mutant constructs were tagged with a Myc epitope at the amino-terminus. The Asp718-MscI cDNA fragment encoding ROCKΔ1 mutant (residues 1-1080) was also cloned into the pCAG-myc vector (pCAG-ROCKΔ1) (Ishizaki et al., 1997). A signal lysine at residue 105 was replaced by alanine to generate a kinase deficient mutant, pCAG-ROCK-1KD. The adenoviral vector, Ad-G/iCasp 3, expressing conditional caspase 3, was generously provided by Drs. David Spencer and Kevin Slawin at Baylor College of Medicine. Addition of CID, AP20187 (50 nM, 24 hr), provoked the aggregation and activation of caspase 3 as well as rapid apoptosis (Shariat et al., 2001; Mallet et al., 2002).
Western blot and Malachite green assay. Anti-ROCK-1, caspase 3, PARP, His, α-actin antibodies (Santa Cruz), anti-phospho-AKTser473 (Cell Signaling) and anti-RTEN (Upstate) were purchased. Protein samples for Western blot were prepared and separated as described earlier (Chang et al., 2000). Even loadings were confirmed by Ponceau staining and antibody probed for actin. PTEN activity was evaluated by Malachite green assay (Upstate). 500 μg of cell lysate protein was used for immunoprecipitation.

[2] = system: myeline basic protein (MBP) kinase (MBP-kinase); experiment: Kinase-Glo luminescent kinase assay; assay type: biochemical; details: SRF-N as substrate, ATP
Procedure: In a particular embodiment, the Kinase-Glo luminescent kinase assay from Promega (Madison, Wis.) is employed, which comprises a method of measuring kinase activity by quantifying the amount of ATP remaining in solution following a kinase reaction. […] In additional embodiments, the Km and/or kcat for SRF-N against MBP-Kinase and the IC50 or Ki for PH domain are measured, such as by standard methods in the art.
FIG. 25B illustrates the role of ROCK in processing of its substrates in the presence of ATP.

protein kinases A and C = details: lower affinity than that for Rho kinase; cited from earlier work
[3] = system: Dahl salt-sensitive hypertensive rats; details: administration to Dahl salt-sensitive hypertensive rats; cited from earlier work
early chick embryos = details: treated early chick embryos; cited from earlier work
[4] = system: angiotensin II-infused rats; details: administration of fasudil; cited from earlier work
caspase 3 = experiment: Ceramide-induced caspase 3 activation and apoptosis in cardiomyocytes (caspase 3 sensor, fluorescent staining); assay type: cell-based, rat; details: without siRNA treatment
Procedure: Apoptosis assay and immunofluorescence analysis. Apoptosis was evaluated using caspase 3 activity and poly(ADP-ribose) polymerase (PARP) cleavage with Western blot in human and mouse heart tissues. With regard to apoptotic cultured neonatal cardiomyocytes, a caspase 3 sensor (BD Biosciences) was introduced to detect the onset of caspase 3 activity (FIG. 9). The vector encodes EYFP (enhanced yellow fluorescent protein) fused with NES (nuclear export signal) and NLS (nuclear localization signal). A caspase 3 specific cleavage site is located between EYFP and NES. […] Upon induction of apoptosis, the export signal is removed by active caspase 3, which triggers the redistribution of EYFP from the cytosol to the nucleus via NLS. The quantification was performed by counting the number of transfected cells with the nuclear localization of fluorescent fusion protein over the total transfected cells. Alexa Fluor 594 phalloidin staining (Molecular Probes) and DAPI staining were applied for F-actin and cellular nuclei visualization, respectively.
siRNAs application for ROCK-1 and PTEN knockdown and ceramide-induced apoptosis. To knockdown ROCK-1 expression in neonatal rat cardiomyocytes, 100 nM siRNA (Ambion) was used with co-transfection of caspase 3 sensor vector as described above. Same amount of siRNA specific for PTEN (Ambion) was applied to human HEK cells. […]

[5] = system: human growth hormone (hGH) transgene; experiment: Cardiac-specific RU486-inducible gene-switch expression of human growth hormone in bi-transgenic mice; assay type: in vivo, mouse; details: after 4 days of administration, dose-dependent, estimated
Procedure: Expression of the transgene is induced in all 4 chambers of the bi-transgenic hearts by administration of RU486 for 4 days. […] The serum level of hGH was measured by radioimmunoassay.

[6] = doxorubicin-treated myocytes, Western blot

Q: Which “cleavage of SRF” value ([1]; Ad-G/iCasp3 in the presence of CID, data not shown) does the source give for `CC[C@H](C(=O)N1CCCC[C@H]1C(=O)O[C@H](CCc1ccc(OC)c(OC)c1)c1cccc(OCC(=O)NCC(CNC(=O)COc2cccc([C@@H](CCc3ccc(OC)c(OC)c3)OC(=O)[C@@H]3CCCCN3C(=O)[C@@H](CC)c3cc(OC)c(OC)c(OC)c3)c2)CN(C)C)c1)c1cc(OC)c(OC)c(OC)c1` [AP20187] here?
A: Its value is “not detectable”.

Q: What about the “130 kDa cleavage fragment of ROCK1” value [1] of the same molecule?
A: The value was “detected”.

Q: What about the “130 kDa cleavage fragment of ROCK1” value ([1]; listed as CID) of the same molecule?
A: Its value is “cleavage of ROCK-1 only in the presence of CID”.

Q: Which “130 kDa ROCK1 species in presence of caspase 3 inhibitor” value (ROCK1; doxorubicin-treated myocytes plus inhibitor) does the source give for Z-VAD here?
A: Its value is “not detected; also recorded: blocked the cleavage”.

Q: With `C[C@@H](N)[C@H]1CC[C@H](C(=O)Nc2ccncc2)CC1` [Y27632] as the molecule, how does the “inhibition activity against MBP-kinase” value [2] read?
A: Its value is “inhibition activity”.

Q: And the “affinity for protein kinases A and C relative to Rho kinase” value (protein kinases A and C)?
A: Its value is “about 200 times”.

Q: What about the “effect on cardiac hypertrophy and remodeling” value [3] of the same molecule?
A: The value was “regression of cardiac hypertrophy and decreased pathological remodeling”.

Q: What about the “expression of cardiac α-actin (early cardiac differentiation marker)” value (early chick embryos) of the same molecule?
A: Its value is “precocious expression of cardiac α-actin was observed”.

Q: Which “effect on angiotensin II-induced cardiovascular changes” value [4] does the source give for `O=S(=O)(c1cccc2cnccc12)N1CCCNCC1` [fasudil] here?
A: The value was “suppresses angiotensin II-induced coronary vascular hypertrophy, endothelial dysfunction and cardiomyocyte hypertrophy”.

Q: For ceramide, which “induction of caspase 3 activation and cellular apoptosis” value (caspase 3) is on record?
A: The value was “strongly induced caspase 3 activation”.

Q: For `CC#C[C@]1(O)CC[C@H]2[C@@H]3CCC4=CC(=O)CCC4=C3[C@@H](c3ccc(N(C)C)cc3)C[C@@]21C` [RU486], which “inducible level of hGH in the transgenic heart versus the basal level” value [5] is on record?
A: The value was 100 to 1000 fold.

Q: For `COc1cccc2c1C(=O)c1c(O)c3c(c(O)c1C2=O)C[C@@](O)(C(=O)CO)C[C@@H]3O[C@H]1C[C@H](N)[C@H](O)[C@H](C)O1` [doxorubicin], which “cleavage of ROCK2” value (ROCK1; doxorubicin-treated myocytes) is on record?
A: The value was “not observed”.

Q: And the “130 kDa cleavage fragment of ROCK1” value (ROCK1; [6])?
A: The value was “detected; also recorded: revealed cleavages”.

Q: What about the “cleaved PARP” value (ROCK1; [6]) of the same molecule?
A: The value was “detected; also recorded: revealed cleavages”.

Q: And the “cleavage of SRF” value (ROCK1; doxorubicin-treated neonatal cardiomyocytes, data not shown)?
A: Its value is “not detectable”.
